Measured values: patent US12180187B2, “1-phenyl-5-azinylpyrazolyl-3-oxyalkyl acids and their use for controlling unwanted plant growth” (BAYER AKTIENGESELLSCHAFT, priority 2019, dated 2024)

What was measured:
AMARE [1] = experiment: Pre-emergence action against AMARE, 1280 g/ha; type: in vivo, Amaranthus retroflexus; details: scored visually after about 3 weeks vs untreated controls (100% = plants have died)
In short: (§1)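 Each pot was doubly sown in sandy loam and covered, then its soil surface was treated with compound suspension or emulsion containing 0.5% additive at 600 L/ha water. Plants grew in a greenhouse; effect was rated visually as percentages versus controls after about 3 weeks.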

SETVI [2] = experiment: Pre-emergence action against SETVI, 1280 g/ha; type: in vivo, Setaria viridis; details: visual scoring after about 3 weeks vs untreated controls, 100% = plants have died, 0% = like control plants
In short: as §1

POLCO = experiment: Pre-emergence action at 320 g/ha against POLCO; type: in vivo, Fallopia convolvulus (Polygonum convolvulus); details: visual scoring after about 3 weeks vs untreated controls
In short: (§2)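 WP/EC formulations applied pre-emergence to covering soil, water rate 600 l/ha, 0.5% additive. Greenhouse, ~3 weeks. Visual % damage vs untreated (0–100%).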

AMARE [3] = experiment: Pre-emergence action at 320 g/ha against AMARE; type: in vivo, Amaranthus retroflexus; details: visual scoring after about 3 weeks vs untreated controls
In short: as §2

POAAN [4] = experiment: Post-emergence action against POAAN, 1.28 kg/ha; type: in vivo, Poa annua; details: dosage 1280 g/ha, visual rating about 3 weeks after treatment vs untreated controls
In short: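 Herbicidal action is estimated by eye after about three weeks under optimum greenhouse conditions, on a 0–100% scale against untreated plants. Compounds are applied post-emergence to one-leaf-stage weeds as aqueous WP or EC preparations containing 0.5% additive, sprayed at 600 L/ha.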

DIGSA = experiment: Pre-emergence action at 320 g/ha against DIGSA; type: in vivo, Digitaria sanguinalis; details: visual scoring after about 3 weeks vs untreated controls
In short: as §2

POAAN [5] = experiment: Pre-emergence action against POAAN, 1280 g/ha; type: in vivo, Poa annua; details: visual scoring after about 3 weeks vs untreated controls, 100% = plants have died, 0% = like control plants
In short: as §1

PHBPU = experiment: Post-emergence action at 320 g/ha against PHBPU; type: in vivo; details: visual rating about 3 weeks after treatment vs untreated controls
In short: (§3)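 Weeds were sown in sandy loam, grown in a greenhouse and sprayed at the one-leaf stage, 2 to 3 weeks after sowing, with WP or EC formulations as aqueous suspension or emulsion plus 0.5% additive at 600 l/ha water. Activity was rated visually after about 3 weeks against untreated controls (100% = plants dead, 0% = like control).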

ALOMY = experiment: Pre-emergence action at 320 g/ha against ALOMY; type: in vivo, Alopecurus myosuroides; details: scored visually after about 3 weeks vs untreated controls (100% = plants have died)
In short: as §2

SETVI [6] = experiment: Post-emergence action at 320 g/ha against SETVI; type: in vivo, Setaria viridis; details: visual rating about 3 weeks after treatment vs untreated controls
In short: as §3

ABUTH = experiment: Pre-emergence action against ABUTH, 1280 g/ha; type: in vivo, Abutilon theophrasti; details: scored visually after about 3 weeks vs untreated controls (100% = plants have died)
In short: as §1

ECHCG = experiment: Pre-emergence action against ECHCG, 1280 g/ha; type: in vivo, Echinochloa crus-galli; details: visual scoring after about 3 weeks vs untreated controls, 100% = plants have died, 0% = like control plants
In short: as §1

STEME = experiment: Pre-emergence action against STEME, 1280 g/ha; type: in vivo, Stellaria media; details: scored visually after about 3 weeks vs untreated controls (100% = plants have died)
In short: as §1

MATIN = experiment: Pre-emergence action against MATIN, 1280 g/ha; type: in vivo, Tripleurospermum inodorum (Matricaria inodora); details: scored visually after about 3 weeks vs untreated controls (100% = plants have died)
In short: as §1

SETVI [7] = experiment: Pre-emergence action at 320 g/ha against SETVI; type: in vivo, Setaria viridis; details: visual scoring after about 3 weeks vs untreated controls
In short: as §2

| Compound | Pre-emergence action against AMARE (AMARE [1]) [%] | Pre-emergence action against SETVI (SETVI [2]) [%] | Pre-emergence action against POLCO in % (POLCO) [%] | Pre-emergence action against AMARE in % (AMARE [3]) [%] | Post-emergence action against POAAN (POAAN [4]) [%] | Pre-emergence action against DIGSA in % (DIGSA) [%] | Pre-emergence action against POAAN (POAAN [5]) [%] | Post-emergence action against PHBPU in % (PHBPU) [%] | Pre-emergence action at 320 g/ha against ALOMY in % (ALOMY) [%] | Post-emergence action against SETVI in % (SETVI [6]) [%] | Pre-emergence action against ABUTH (ABUTH) [%] | Pre-emergence action against ECHCG (ECHCG) [%] | Pre-emergence action against STEME (STEME) [%] | Pre-emergence action against MATIN (MATIN) [%] | Pre-emergence action against SETVI in % (SETVI [7]) [%] |
| --- | --- | --- | --- | --- | --- | --- | --- | --- | --- | --- | --- | --- | --- | --- | --- |
| COC(=O)[C@@H](C)Oc1nn(-c2cc(F)ccc2F)c(-c2cncc(F)c2)c1C#N [VII-147] | 100 | 100 | 100 | 100 | 100 | 100 | 100 | 90 | 100 | 80 | 90 | 100 | 100 | 100 | 100 |
| C[C@@H](Oc1nn(-c2ccccc2F)c(-c2cncnc2)c1Br)C(=O)O [VI-012] | 100 | 100 | 80 | 100 | 100 | 100 | 100 | 80 | 90 | 90 | 90 | 90 | 100 | 90 | 100 |
| COC(=O)CCOC(=O)COc1nn(-c2ccccc2F)c(-c2ccc(F)nc2)c1Br [VII-111] | 100 | 100 | 90 | 100 | 100 | 100 | 100 | 80 | 100 | 90 | 90 | 100 | 100 | 100 | 100 |
